Results taken from ChEMBL document CHEMBL5058649, “Data for DCP probe BAY 1816032” (2022).

Tests used:
[1] = target: T1, 5-hydroxytryptamine receptor 1D (Homo sapiens, UniProt P28221); assay: GPCRScan assay: inhibition of 5-HT1D; design: radioligand conc. used [nm] 1.0 – 2.0, parental cells HEKT
[2] = target: 5-hydroxytryptamine receptor 6 (Homo sapiens, UniProt P50406); assay: GPCRScan assay: inhibition of 5-HT6; design: radioligand conc. used [nm] 2.0 – 4.0, parental cells stable HEK
[3] = target: T2, Sodium-dependent noradrenaline transporter (Homo sapiens, UniProt P23975); assay: GPCRScan assay: inhibition of NET; design: radioligand conc. used [nm] 1.3 – 5.0, parental cells stable HEK
[4] = target: T3, Sodium-dependent dopamine transporter (Homo sapiens, UniProt Q01959); assay: GPCRScan assay: inhibition of DAT; design: radioligand conc. used [nm] 3.6 – 16.0, parental cells stable HEK
[5] = target: T4, Sigma intracellular receptor 2 (Homo sapiens, UniProt Q5BJF2); assay: GPCRScan assay: inhibition of Sigma 2; design: radioligand conc. used [nm] 5.0, parental cells HEKT
[6] = target: T5, Sigma non-opioid intracellular receptor 1 (Homo sapiens, UniProt Q99720); assay: GPCRScan assay: inhibition of Sigma 1; design: radioligand conc. used [nm] 4.0 – 5.0, parental cells HEKT
[7] = target: T6, Mitotic checkpoint serine/threonine-protein kinase BUB1 (Homo sapiens, UniProt O43683); assay: BUB1 biochemical assay (low ATP)
[8] = target: T6, Mitotic checkpoint serine/threonine-protein kinase BUB1; assay: BUB1 biochemical assay (high ATP)
[9] = target: 5-hydroxytryptamine receptor 1A (Homo sapiens) (UniProt P08908); settings: Compound concentration 10.0 uM
[10] = target: 5-hydroxytryptamine receptor 1B (Homo sapiens) (UniProt P28222); settings: Compound concentration 10.0 uM
[11] = target: T1, 5-hydroxytryptamine receptor 1D; settings: Compound concentration 10.0 uM
[12] = target: 5-hydroxytryptamine receptor 1E (Homo sapiens) (UniProt P28566); settings: Compound concentration 10.0 uM
[13] = target: 5-hydroxytryptamine receptor 2A (Homo sapiens) (UniProt P28223); settings: Compound concentration 10.0 uM
[14] = target: 5-hydroxytryptamine receptor 2B (Homo sapiens) (UniProt P41595); settings: Compound concentration 10.0 uM
[15] = target: 5-hydroxytryptamine receptor 3A (Homo sapiens) (UniProt P46098); settings: Compound concentration 10.0 uM
[16] = target: 5-hydroxytryptamine receptor 5A (Homo sapiens) (UniProt P47898); settings: Compound concentration 10.0 uM
[17] = target: 5-hydroxytryptamine receptor 7 (Homo sapiens, UniProt P34969); settings: Compound concentration 10.0 uM
[18] = target: D(1A) dopamine receptor (Homo sapiens) (UniProt P21728); settings: Compound concentration 10.0 uM
[19] = target: D(2) dopamine receptor (Homo sapiens) (UniProt P14416); settings: Compound concentration 10.0 uM
[20] = target: D(3) dopamine receptor (Homo sapiens) (UniProt P35462); settings: Compound concentration 10.0 uM
[21] = target: D(4) dopamine receptor (Homo sapiens) (UniProt P21917); settings: Compound concentration 10.0 uM
[22] = target: D(1B) dopamine receptor (Homo sapiens) (UniProt P21918); settings: Compound concentration 10.0 uM
[23] = target: Sodium-dependent serotonin transporter (Homo sapiens) (UniProt P31645); settings: Compound concentration 10.0 uM
[24] = target: T2, Sodium-dependent noradrenaline transporter; settings: Compound concentration 10.0 uM
[25] = target: T3, Sodium-dependent dopamine transporter; settings: Compound concentration 10.0 uM
[26] = target: Mu-type opioid receptor (Homo sapiens) (UniProt P35372); settings: Compound concentration 10.0 uM
[27] = target: Delta-type opioid receptor (Homo sapiens) (UniProt P41143); settings: Compound concentration 10.0 uM
[28] = target: Kappa-type opioid receptor (Homo sapiens) (UniProt P41145); settings: Compound concentration 10.0 uM
[29] = target: Histamine H1 receptor (Homo sapiens) (UniProt P35367); settings: Compound concentration 10.0 uM
[30] = target: Histamine H2 receptor (Homo sapiens) (UniProt P25021); settings: Compound concentration 10.0 uM
[31] = target: Histamine H4 receptor (Homo sapiens) (UniProt Q9H3N8); settings: Compound concentration 10.0 uM
[32] = target: Alpha-1A adrenergic receptor (Homo sapiens) (UniProt P35348); settings: Compound concentration 10.0 uM
[33] = target: Alpha-1B adrenergic receptor (Homo sapiens) (UniProt P35368); settings: Compound concentration 10.0 uM
[34] = target: T7, Alpha-2A adrenergic receptor (Homo sapiens) (UniProt P08913); settings: Compound concentration 10.0 uM
T7 sequence (whole entry): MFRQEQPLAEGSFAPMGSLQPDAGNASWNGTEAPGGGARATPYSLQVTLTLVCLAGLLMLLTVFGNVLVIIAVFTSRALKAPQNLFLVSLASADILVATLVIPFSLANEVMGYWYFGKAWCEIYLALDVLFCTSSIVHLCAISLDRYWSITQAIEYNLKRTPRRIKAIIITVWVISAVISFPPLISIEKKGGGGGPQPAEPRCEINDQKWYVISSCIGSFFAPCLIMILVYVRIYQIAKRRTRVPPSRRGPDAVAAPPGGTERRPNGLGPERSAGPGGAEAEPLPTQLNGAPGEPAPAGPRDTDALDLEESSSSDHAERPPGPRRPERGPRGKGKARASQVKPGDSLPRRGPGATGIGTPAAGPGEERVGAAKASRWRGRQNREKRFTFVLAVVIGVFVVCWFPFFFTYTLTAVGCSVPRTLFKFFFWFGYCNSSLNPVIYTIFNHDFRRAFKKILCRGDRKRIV

[35] = target: Alpha-2B adrenergic receptor (Homo sapiens) (UniProt P18089); settings: Compound concentration 10.0 uM
[36] = target: Alpha-2C adrenergic receptor (Homo sapiens) (UniProt P18825); settings: Compound concentration 10.0 uM
[37] = target: Beta-1 adrenergic receptor (Homo sapiens) (UniProt P08588); settings: Compound concentration 10.0 uM
[38] = target: Muscarinic acetylcholine receptor M4 (Homo sapiens) (UniProt P08173); settings: Compound concentration 10.0 uM
[39] = target: Beta-3 adrenergic receptor (Homo sapiens) (UniProt P13945); settings: Compound concentration 10.0 uM
Rattus norvegicus = species: Rattus norvegicus; settings: Compound concentration 10.0 uM
[40] = target: Alpha-1D adrenergic receptor (Homo sapiens) (UniProt P25100); settings: Compound concentration 10.0 uM
[41] = target: T4, Sigma intracellular receptor 2; settings: Compound concentration 10.0 uM
[42] = target: T5, Sigma non-opioid intracellular receptor 1; settings: Compound concentration 10.0 uM

T3 sequence (Q01959 whole entry): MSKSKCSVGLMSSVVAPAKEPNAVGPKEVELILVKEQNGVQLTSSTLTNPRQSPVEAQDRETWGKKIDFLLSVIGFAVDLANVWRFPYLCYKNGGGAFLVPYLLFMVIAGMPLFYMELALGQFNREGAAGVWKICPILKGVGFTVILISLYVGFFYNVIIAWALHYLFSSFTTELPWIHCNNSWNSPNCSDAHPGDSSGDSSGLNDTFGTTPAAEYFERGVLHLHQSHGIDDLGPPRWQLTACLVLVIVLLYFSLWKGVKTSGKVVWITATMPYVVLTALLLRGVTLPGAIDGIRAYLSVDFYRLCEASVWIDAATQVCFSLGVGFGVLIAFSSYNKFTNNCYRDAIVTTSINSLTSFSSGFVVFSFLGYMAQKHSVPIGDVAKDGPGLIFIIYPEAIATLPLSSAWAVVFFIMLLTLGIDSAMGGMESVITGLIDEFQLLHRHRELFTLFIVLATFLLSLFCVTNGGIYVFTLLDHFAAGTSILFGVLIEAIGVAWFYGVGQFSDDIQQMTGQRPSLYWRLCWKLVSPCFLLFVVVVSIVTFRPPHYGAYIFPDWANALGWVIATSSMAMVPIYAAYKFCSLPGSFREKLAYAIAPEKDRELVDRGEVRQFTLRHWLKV
T5 sequence (Q99720 whole entry): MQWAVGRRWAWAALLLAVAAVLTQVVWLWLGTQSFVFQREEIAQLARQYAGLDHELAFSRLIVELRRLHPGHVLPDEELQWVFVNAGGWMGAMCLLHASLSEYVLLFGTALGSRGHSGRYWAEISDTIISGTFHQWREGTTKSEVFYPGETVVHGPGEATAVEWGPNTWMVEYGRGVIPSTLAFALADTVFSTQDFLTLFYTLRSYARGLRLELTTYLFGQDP
T6 sequence (O43683 whole entry): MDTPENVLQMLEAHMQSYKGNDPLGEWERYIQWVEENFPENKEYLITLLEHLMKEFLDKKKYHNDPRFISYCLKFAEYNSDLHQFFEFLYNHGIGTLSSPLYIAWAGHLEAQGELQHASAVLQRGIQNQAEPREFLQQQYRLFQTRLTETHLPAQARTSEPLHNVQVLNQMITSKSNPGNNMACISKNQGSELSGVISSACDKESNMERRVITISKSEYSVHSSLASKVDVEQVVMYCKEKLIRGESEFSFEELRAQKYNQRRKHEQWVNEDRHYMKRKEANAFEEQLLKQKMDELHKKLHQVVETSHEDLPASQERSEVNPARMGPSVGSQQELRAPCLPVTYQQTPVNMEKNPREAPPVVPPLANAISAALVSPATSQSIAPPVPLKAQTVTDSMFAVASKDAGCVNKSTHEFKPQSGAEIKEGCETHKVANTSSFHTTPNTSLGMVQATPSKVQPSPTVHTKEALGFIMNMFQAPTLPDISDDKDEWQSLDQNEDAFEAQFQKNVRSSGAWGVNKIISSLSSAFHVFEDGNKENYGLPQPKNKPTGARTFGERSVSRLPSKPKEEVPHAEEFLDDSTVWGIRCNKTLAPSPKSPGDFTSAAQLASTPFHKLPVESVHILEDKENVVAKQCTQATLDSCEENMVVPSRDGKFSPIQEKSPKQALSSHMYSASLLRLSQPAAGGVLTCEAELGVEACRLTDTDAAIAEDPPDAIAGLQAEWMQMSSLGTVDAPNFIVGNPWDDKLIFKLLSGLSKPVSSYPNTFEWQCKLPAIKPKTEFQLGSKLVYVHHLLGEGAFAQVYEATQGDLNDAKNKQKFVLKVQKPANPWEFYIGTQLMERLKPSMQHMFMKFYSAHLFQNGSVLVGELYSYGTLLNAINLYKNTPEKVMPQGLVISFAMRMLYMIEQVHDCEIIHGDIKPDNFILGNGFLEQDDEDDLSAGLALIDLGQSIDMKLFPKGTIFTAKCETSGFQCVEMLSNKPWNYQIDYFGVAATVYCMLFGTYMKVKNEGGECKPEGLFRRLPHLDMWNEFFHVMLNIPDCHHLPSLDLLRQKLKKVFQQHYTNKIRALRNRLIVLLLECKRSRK
T2 sequence (P23975 whole entry): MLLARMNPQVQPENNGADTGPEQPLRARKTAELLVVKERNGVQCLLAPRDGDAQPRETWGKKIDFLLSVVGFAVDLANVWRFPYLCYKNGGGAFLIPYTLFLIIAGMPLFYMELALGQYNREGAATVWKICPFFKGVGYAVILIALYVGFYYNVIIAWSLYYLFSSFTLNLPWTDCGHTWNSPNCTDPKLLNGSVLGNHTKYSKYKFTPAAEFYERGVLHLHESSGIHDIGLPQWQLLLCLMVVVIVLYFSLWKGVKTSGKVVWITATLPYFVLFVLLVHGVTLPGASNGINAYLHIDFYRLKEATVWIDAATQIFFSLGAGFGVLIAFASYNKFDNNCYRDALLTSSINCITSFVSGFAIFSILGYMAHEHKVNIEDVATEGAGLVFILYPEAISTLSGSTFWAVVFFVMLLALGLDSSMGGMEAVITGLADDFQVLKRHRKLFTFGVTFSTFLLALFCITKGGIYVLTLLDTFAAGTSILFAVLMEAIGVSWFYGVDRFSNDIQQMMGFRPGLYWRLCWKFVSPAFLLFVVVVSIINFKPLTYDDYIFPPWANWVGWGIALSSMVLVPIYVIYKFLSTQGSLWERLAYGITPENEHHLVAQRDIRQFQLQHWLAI
Chain of 5-hydroxytryptamine receptor 6 (P50406 whole entry): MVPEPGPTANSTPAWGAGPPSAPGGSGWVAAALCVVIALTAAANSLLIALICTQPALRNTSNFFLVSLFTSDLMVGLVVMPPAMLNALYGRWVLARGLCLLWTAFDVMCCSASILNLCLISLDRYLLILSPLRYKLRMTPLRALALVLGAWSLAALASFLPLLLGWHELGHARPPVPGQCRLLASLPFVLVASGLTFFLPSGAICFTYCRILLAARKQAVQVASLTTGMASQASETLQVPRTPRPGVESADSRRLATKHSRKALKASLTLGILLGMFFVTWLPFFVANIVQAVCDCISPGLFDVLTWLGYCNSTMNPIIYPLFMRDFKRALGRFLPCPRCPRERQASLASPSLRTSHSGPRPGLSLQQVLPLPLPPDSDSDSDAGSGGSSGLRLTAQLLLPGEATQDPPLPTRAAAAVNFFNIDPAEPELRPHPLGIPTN
T1 sequence (P28221 whole entry): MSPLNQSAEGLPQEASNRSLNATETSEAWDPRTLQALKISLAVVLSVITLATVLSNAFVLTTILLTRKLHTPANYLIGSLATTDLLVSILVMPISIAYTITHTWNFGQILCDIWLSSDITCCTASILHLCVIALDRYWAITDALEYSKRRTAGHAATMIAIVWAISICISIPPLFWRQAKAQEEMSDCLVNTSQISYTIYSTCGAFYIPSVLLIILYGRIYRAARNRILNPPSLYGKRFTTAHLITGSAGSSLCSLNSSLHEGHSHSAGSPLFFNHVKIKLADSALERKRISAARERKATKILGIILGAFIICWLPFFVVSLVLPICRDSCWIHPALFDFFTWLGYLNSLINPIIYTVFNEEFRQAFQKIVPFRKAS
T4 sequence (Q5BJF2 whole entry): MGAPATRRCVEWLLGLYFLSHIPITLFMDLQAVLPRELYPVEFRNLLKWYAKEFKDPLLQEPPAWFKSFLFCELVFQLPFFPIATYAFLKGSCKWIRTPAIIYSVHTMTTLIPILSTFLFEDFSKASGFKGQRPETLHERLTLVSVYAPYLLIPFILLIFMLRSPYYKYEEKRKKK
Chain of Alpha-2C adrenergic receptor (Homo sapiens) (P18825 whole entry): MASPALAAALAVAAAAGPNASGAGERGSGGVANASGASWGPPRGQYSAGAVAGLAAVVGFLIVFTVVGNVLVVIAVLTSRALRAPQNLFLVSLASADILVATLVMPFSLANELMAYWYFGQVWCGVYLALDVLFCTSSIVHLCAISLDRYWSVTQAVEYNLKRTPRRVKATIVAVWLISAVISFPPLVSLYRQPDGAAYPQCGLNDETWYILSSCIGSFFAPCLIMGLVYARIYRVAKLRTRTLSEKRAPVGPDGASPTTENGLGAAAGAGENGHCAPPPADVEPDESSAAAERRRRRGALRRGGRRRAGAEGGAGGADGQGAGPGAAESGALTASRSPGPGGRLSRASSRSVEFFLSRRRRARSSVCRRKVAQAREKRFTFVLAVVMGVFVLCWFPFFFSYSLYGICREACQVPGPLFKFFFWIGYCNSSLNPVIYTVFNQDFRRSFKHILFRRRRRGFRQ
Chain of Kappa-type opioid receptor (Homo sapiens) (P41145 whole entry): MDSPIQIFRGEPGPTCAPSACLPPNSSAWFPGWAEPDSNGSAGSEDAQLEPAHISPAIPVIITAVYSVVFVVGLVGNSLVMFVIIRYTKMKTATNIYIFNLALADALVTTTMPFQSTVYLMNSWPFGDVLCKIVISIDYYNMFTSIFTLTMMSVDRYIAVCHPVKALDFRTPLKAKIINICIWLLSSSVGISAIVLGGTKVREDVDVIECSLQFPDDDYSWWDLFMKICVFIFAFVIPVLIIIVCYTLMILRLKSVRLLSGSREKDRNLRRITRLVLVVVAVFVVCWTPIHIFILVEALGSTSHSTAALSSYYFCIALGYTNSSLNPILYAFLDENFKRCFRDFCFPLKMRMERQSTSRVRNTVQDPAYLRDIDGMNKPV
Chain of 5-hydroxytryptamine receptor 1B (Homo sapiens) (P28222 whole entry): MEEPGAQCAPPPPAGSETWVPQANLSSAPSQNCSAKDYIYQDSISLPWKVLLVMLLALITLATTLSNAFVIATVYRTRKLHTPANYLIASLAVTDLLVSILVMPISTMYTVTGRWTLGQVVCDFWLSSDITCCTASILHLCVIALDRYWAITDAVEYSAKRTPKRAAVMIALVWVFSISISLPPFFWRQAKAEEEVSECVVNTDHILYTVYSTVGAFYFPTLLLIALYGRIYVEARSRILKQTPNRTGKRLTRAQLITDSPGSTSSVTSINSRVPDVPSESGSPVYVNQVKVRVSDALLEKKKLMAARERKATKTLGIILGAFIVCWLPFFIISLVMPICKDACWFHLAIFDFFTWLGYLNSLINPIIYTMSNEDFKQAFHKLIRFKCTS

COc1ccccc1Nc1nc(-c2nn(Cc3c(F)cc(OCCCO)cc3F)c3ccccc23)ncc1OC
Ki [1]: 8.97 µM | Ki [2]: > 10 µM | pKi [2]: < 5 | Ki [3]: 2.74 µM | Ki ([4]; read-out: Ki): 1.63 µM | Ki ([4]; read-out: pKi (converted)): 1.62 µM | Ki [5]: 0.655 µM | Ki [6]: 1.34 µM | IC50 [7]: 1.7 µM (not active) | IC50 [8]: > 20 µM (not active) | inhibition [9]: 12.3% | inhibition [10]: 33.8% | inhibition [11]: 55.1% | inhibition [12]: -3.71% | inhibition [13]: 6.5% | inhibition [14]: -3.83% | inhibition [15]: -3.97% | inhibition [16]: 3.77% | inhibition [17]: -3.39% | inhibition [18]: 41.3% | inhibition [19]: 21.8% | inhibition [20]: 20% | inhibition [21]: 24.9% | inhibition [22]: 26.8% | inhibition [23]: 10.9% | inhibition [24]: 58.7% | inhibition [25]: 82.8% | inhibition [26]: -9.7% | inhibition [27]: -9.55% | inhibition [28]: 17.5% | inhibition [29]: 20.3% | inhibition [30]: 28.7% | inhibition [31]: 27.8% | inhibition [32]: -6.1% | inhibition [33]: -4.46% | inhibition [34]: 28.9% | inhibition [35]: 27.6% | inhibition [36]: 12.9% | inhibition [37]: 1.17% | inhibition [38]: 9.26% | inhibition [39]: 33.6% | inhibition (Rattus norvegicus): 13.9% | inhibition [40]: 12.9% | inhibition [41]: 69.2% | inhibition [42]: 52.2%
